Source: publication PMC5882164, “A novel calcimimetic agent, evocalcet (MT-4580/KHK7580), suppresses the parathyroid cell function with little effect on the gastrointestinal tract or CYP isozymes in vivo and in vitro” (PLoS ONE, 2018)

Molecular target: T1, human CaR (Homo sapiens, UniProt P41180)
T1 construct: expressed in transfected cells
T1 sequence (P41180 20-1078): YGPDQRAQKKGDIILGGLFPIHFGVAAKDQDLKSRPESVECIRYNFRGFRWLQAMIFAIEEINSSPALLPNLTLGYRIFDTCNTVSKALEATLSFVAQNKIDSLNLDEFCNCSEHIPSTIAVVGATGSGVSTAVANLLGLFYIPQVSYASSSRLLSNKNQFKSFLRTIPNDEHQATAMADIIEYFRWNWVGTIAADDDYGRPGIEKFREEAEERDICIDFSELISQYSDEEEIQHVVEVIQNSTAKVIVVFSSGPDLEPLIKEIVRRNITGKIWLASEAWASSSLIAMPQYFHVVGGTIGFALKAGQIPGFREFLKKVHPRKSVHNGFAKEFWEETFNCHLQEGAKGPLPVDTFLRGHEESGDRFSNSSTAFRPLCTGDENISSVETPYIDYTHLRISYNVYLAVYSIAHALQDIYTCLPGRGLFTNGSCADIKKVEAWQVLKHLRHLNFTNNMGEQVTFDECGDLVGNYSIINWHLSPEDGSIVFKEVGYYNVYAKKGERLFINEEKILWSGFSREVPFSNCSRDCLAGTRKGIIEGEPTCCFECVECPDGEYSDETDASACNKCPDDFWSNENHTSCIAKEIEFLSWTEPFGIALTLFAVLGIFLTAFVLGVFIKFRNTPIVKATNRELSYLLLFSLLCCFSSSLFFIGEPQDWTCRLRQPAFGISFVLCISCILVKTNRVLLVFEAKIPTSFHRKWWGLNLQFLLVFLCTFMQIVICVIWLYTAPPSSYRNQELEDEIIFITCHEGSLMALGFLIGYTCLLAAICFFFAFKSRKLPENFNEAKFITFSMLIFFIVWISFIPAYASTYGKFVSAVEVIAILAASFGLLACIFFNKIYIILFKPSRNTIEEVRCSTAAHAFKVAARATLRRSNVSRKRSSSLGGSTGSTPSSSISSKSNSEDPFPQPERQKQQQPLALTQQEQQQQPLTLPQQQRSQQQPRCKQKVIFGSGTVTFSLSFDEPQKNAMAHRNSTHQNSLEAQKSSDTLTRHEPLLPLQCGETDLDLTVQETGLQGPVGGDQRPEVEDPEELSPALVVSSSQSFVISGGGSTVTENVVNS
Experiment: Agonistic activity studies with HEK293 cells stably expressing human CaR (cytoplasmic Ca2+ concentration)
Assay type: cell-based
Settings: hCaR-HEK293 cells
Protocol: HEK 293 cell is obtained from Summit Pharmaceuticals International Corporation (ATCC® Number: CRL-1573^TM). The HindIII-XhoI fragment of the human CaR cDNA was subcloned into the mammalian expression vector pcDNA3.1/Hygro (+) (Invitrogen) containing the hygromycin resistance gene as a selectable marker. This plasmid was transfected into HEK 293 cells by lipofection. The transfected cells were grown in DMEM containing 10% fetal bovine serum and hygromycin B ([…]) in 96 well plate. Hygromycin-resistant colonies were subcloned and assayed for hCaR mRNA by quantitative RT-PCR. The stably transfected cell line was then selected and used for agonistic activity studies.
Evocalcet was dissolved in dimethyl sulfoxide (DMSO) and diluted with HEPES buffer for the preparation of cells. Evocalcet solutions (3~30000 nM, 9-point concentrations) were added to a 96-well plate, and a suspension of HEK293 cells stably transfected with the human CaR was then seeded onto the plate. The ratio with the fluorescence intensity was determined continuously with a multi-label plate reader. To evaluate the agonistic activity pattern of evocalcet, calcium solutions in each concentration were added after the addition of evocalcet solutions to the plate.
The transient changes in the cytoplasmic calcium concentration (Δ[Ca^2+]i) induced by receptor activation were measured. (A) The effect of evocalcet on the Δ[Ca^2+]i value in hCaR-HEK293 cells. (B) The effect of evocalcet on the response rates elicited by increasing the extracellular calcium level in hCaR-HEK293 cells. The response rate was calculated using the following formula: Responserate(%)=Δ[Ca^2+]i/MaxΔ[Ca^2+]i×100 Δ[Ca^2+]i: Subtraction of basal [Ca^2+]i from maximum [Ca^2+]i observed after addition of evocalcet; Max Δ[Ca^2+]i: Δ[Ca^2+]i at the maximum Ca concentration (3 mmol/L).

C[C@@H](N[C@H]1CCN(c2ccc(CC(=O)O)cc2)C1)c1cccc2ccccc12 [evocalcet]
Δ[Ca^2+]i (evocalcet 3 nmol/L): 1.94 nmol/L
Δ[Ca^2+]i (evocalcet 10 nmol/L): 6.18 nmol/L
Response rate (evocalcet 20 nmol/L, Ca concentration 0.25 mmol/L): 0%
Response rate (evocalcet 20 nmol/L, Ca concentration 0.3 mmol/L): 0%
Response rate (evocalcet 20 nmol/L, Ca concentration 0.6 mmol/L): 0.26%
Response rate (evocalcet 20 nmol/L, Ca concentration 0.9 mmol/L): 4.69%
Response rate (evocalcet 20 nmol/L, Ca concentration 1.2 mmol/L): 16.07%
Response rate (evocalcet 20 nmol/L, Ca concentration 1.5 mmol/L): 33.31%
Response rate (evocalcet 20 nmol/L, Ca concentration 1.8 mmol/L): 52.75%
Response rate (evocalcet 20 nmol/L, Ca concentration 2.1 mmol/L): 70.47%
Response rate (evocalcet 20 nmol/L, Ca concentration 2.4 mmol/L): 84.37%
Response rate (evocalcet 20 nmol/L, Ca concentration 2.7 mmol/L): 94.54%
Response rate (evocalcet 20 nmol/L, Ca concentration 3.0 mmol/L (maximum, reference)): 100%
Δ[Ca^2+]i (evocalcet 30 nmol/L): 17.71 nmol/L
Response rate (evocalcet 60 nmol/L, Ca concentration 0.25 mmol/L): 0%
Response rate (evocalcet 60 nmol/L, Ca concentration 0.3 mmol/L): 0%
Response rate (evocalcet 60 nmol/L, Ca concentration 0.6 mmol/L): 3.76%
Response rate (evocalcet 60 nmol/L, Ca concentration 0.9 mmol/L): 16.86%
Response rate (evocalcet 60 nmol/L, Ca concentration 1.2 mmol/L): 33.15%
Response rate (evocalcet 60 nmol/L, Ca concentration 1.5 mmol/L): 53.86%
Response rate (evocalcet 60 nmol/L, Ca concentration 1.8 mmol/L): 70.14%
Response rate (evocalcet 60 nmol/L, Ca concentration 2.1 mmol/L): 81.77%
Response rate (evocalcet 60 nmol/L, Ca concentration 2.4 mmol/L): 88.98%
Response rate (evocalcet 60 nmol/L, Ca concentration 2.7 mmol/L): 92.99%
Response rate (evocalcet 60 nmol/L, Ca concentration 3.0 mmol/L (maximum, reference)): 100%
Δ[Ca^2+]i (evocalcet 100 nmol/L): 50.62 nmol/L
Δ[Ca^2+]i (evocalcet 300 nmol/L): 71.35 nmol/L
Δ[Ca^2+]i (evocalcet 1000 nmol/L): 70.70 nmol/L
Δ[Ca^2+]i (evocalcet 3000 nmol/L): 75.59 nmol/L
Δ[Ca^2+]i (evocalcet 10000 nmol/L): 78.61 nmol/L
Δ[Ca^2+]i (evocalcet 30000 nmol/L): 77.66 nmol/L
EC50 (read-out: EC50 for [Ca^2+]i): 92.7 nM
